Assay: Thermo Scientific Acclaim RSLC 120 C18, 100 × 2.1 mm, 2.2 µm, 30 °C; A: 90% water + 10% methanol + 0.01% formic acid + 5 mM ammonium formate; B: methanol + 0.01% formic acid + 5 mM ammonium formate; gradient (min/%B) 0.1/1 3/39 14/99.9 16/99.9
Settings: stereoisomer not certain

Row | Structure (SMILES) | LC retention time [min]
1 | COc1cc(OC)nc(NC(=O)NS(=O)(=O)c2ncccc2C(=O)N(C)C)n1 | 6.62
2 | CCN(C(C)=O)c1cccc(-c2ccnc3c(C#N)cnn23)c1 | 6.61
3 | CC=C1CC(C)C(O)(CO)C(=O)OCC2=CC[N+]3([O-])CCC(OC1=O)C23 (centres undefined) | 4.33
4 | CCC1(C2OC(C3OC(O)(CO)C(C)CC3C)CC2C)CCC(C2(C)CCC3(CC(O)C(C)C(C(C)C(OC)C(C)C(=O)O)O3)O2)O1 (centres undefined) | 13.8
5 | CC(C)C(O)(C(=O)OCC1=CC[N+]2([O-])CCC(O)C12)C(C)O (centres undefined) | 3.94
6 | COC(C)C(O)(C(=O)OCC1=CCN2CCC(O)C12)C(C)C (centres undefined) | 4.27
7 | COc1ccc(OC)c(CC(C)N)c1 (centres undefined) | 4.78
8 | CN1CCCCC1Cn1cc(C(=O)C2C(C)(C)C2(C)C)c2ccccc21 (centres undefined) | 8.81
9 | CCCCCn1nc(C(=O)NC(C(N)=O)C(C)(C)C)c2ccccc21 (centres undefined) | 11.2
10 | COc1ccc2[nH]cc(CCN(C)C)c2c1 | 3.98
11 | CC1NCCOC1c1ccccc1 (centres undefined) | 4.14
12 | CNC(=O)Oc1cc(C)cc(C)c1C | 8.4
13 | CCCCCn1cc(C(=O)c2cccc3ccccc23)c2c(O)cccc21 | 12.5
14 | COC(=O)NS(=O)(=O)c1ccc(N)cc1 | 3.41
15 | CC(N)Cc1ccccc1 (centres undefined) | 4.16
16 | N#CCCCCn1cc(C(=O)c2cccc3ccccc23)c2ccccc21 | 9.69
17 | COC(=O)C(NC(=O)c1nn(CC2CCCCC2)c2ccccc12)C(C)(C)C (centres undefined) | 12.9
18 | NC1CCc2cc3c(cc2C1)OCO3 (centres undefined) | 4.32
19 | CN(C(=O)COc1nc2ccccc2s1)c1ccccc1 | 9.83
20 | CNC(=O)N(C)c1nnc(C(C)(C)C)s1 | 7.25
21 | CNC(C)C(O)c1ccc(O)cc1 (centres undefined) | 2.05
22 | COc1ccc2c3c1OC1C(OC4OC(C(=O)O)C(O)C(O)C4O)C=CC4C(C2)NCCC341 (centres undefined) | 2.48
23 | CCCCCn1c(O)c(C(=O)c2cccc3ccccc23)c2ccccc21 | 14
24 | CC12CCC(=O)C=C1CCC1C2CCC2(C)C1CCC2(C)O (centres undefined) | 10.4

Row | Structure (SMILES) | LC retention time [min]
25 | CCOP(=S)(Oc1ccc(C#N)cc1)c1ccccc1 (centres undefined) | 10.9
26 | CCCCCCCCCc1ccc(OCCO)cc1 | 13.2
27 | CCOP(=S)(NC(C)CC)Oc1cc(C)ccc1[N+](=O)[O-] (centres undefined) | 11.2
28 | CNC(C)Cc1ccc2c(c1)OCO2 (centres undefined) | 4.18
29 | CCOC(=O)c1cn2nc(OP(=S)(OCC)OCC)cc2nc1C | 11.4
30 | CC12C=CC3=C4CCC(=O)C=C4CCC3C1CCC2O (centres undefined) | 8.89
31 | COCC(=O)N(c1c(C)cccc1C)N1CCOC1=O | 6.29
32 | CCOP(=S)(OCC)Oc1ccc(=O)n(-c2ccccc2)n1 | 9.79
33 | c1ccc(CN2CCNCC2)cc1 | 4.23
34 | CNC(=O)Oc1cccc2c1OC(C)(C)C2 | 7.01
35 | CCN1CC2(COC)C(O)CC(OC)C34C5CC6(O)C(OC)C(O)C(OC(C)=O)(C5C6OC(=O)c5ccccc5)C(C(OC)C23)C14 (centres undefined) | 7.09
36 | CCC(C)C1OC2(C=CC1C)CC1CC(CC=C(C)C(OC3CC(OC)C(OC4CC(OC)C(NC)C(C)O4)C(C)O3)C(C)C=CC=C3COC4C(O)C(C)=CC(C(=O)O1)C34O)O2 (centres undefined) | 12.4
37 | CCC(C)CC(C)N (centres undefined) | 4.68
38 | CN1C2CC(OC(=O)C(CO)c3ccccc3)CC1C1OC12 (centres undefined) | 3.83
39 | O=C(c1cccc2ccccc12)c1cn(CCN2CCOCC2)c2cccc(O)c12 | 10.1
40 | CCCCn1cc(C(=O)c2cccc3ccccc23)c2ccccc21 | 11.9
41 | CC12CCC3C(CC=C4CC(O)CCC43C)C1CCC2=O (centres undefined) | 10.2
42 | CC(N)Cc1ccc2[nH]ccc2c1 (centres undefined) | 4.07
43 | CC(=O)Oc1ccc2c3c1OC1C(OC(C)=O)C=CC4C(C2)N(C)CCC341 (centres undefined) | 4.63
44 | CCNC1C2CCC(C2)C1c1ccccc1 (centres undefined) | 6.08
45 | CC(C)(C)C(NC(=O)c1nn(CC2CCCCC2)c2ccccc12)C(N)=O (centres undefined) | 11.7
46 | CCC1CN2CCC3(O)C(=Nc4cccc(OC)c43)C2CC1C(=COC)C(=O)OC (centres undefined) | 5.95
47 | CCCN(CCC)C(=O)SCc1ccccc1 | 11.9

Now from value to compound:

Row | LC retention time [min] | Structure (SMILES)
48 | 13.5 | CCCCCCCCCCCCOCCOCCOCCOCCO
49 | 5.42 | CN1Cc2c(N)cccc2C(c2ccccc2)C1 (centres undefined)
50 | 7.03 | COc1ccc(CCN(C)CCCC(C#N)(c2ccc(OC)c(OC)c2)C(C)C)cc1OC (centres undefined)
51 | 3.11 | CC(C)(C)NCC(O)c1cc(O)cc(O)c1 (centres undefined)
52 | 6.79 | CCN(CCCCOC(=O)c1ccc(OC)c(OC)c1)C(C)Cc1ccc(OC)cc1 (centres undefined)
53 | 2.18 | NNC(=O)c1ccncc1
54 | 6.27 | CCOC(=O)c1ccc(N)cc1
55 | 7.68 | CC(C)(C(=O)O)c1ccc(C(O)CCCN2CCC(C(O)(c3ccccc3)c3ccccc3)CC2)cc1 (centres undefined)
56 | 7.86 | OC(CCN1CCCCC1)(c1ccccc1)C1CCCCC1 (centres undefined)
57 | 4.36 | CCN1CCN(C(=O)NC(C(=O)NC2C(=O)N3C(C(=O)O)=C(CSc4nnnn4C)CSC23)c2ccc(O)cc2)C(=O)C1=O (centres undefined)
58 | 4.21 | CCNc1nc(NCC)[nH]c(=O)n1
59 | 6.91 | COc1ccccc1OCCNCC(O)COc1cccc2[nH]c3ccccc3c12 (centres undefined)
60 | 4.34 | CC(O)Cn1cnc2c1c(=O)n(C)c(=O)n2C (centres undefined)
61 | 8.45 | CCOC(=O)C1CC(=O)C(=C(O)C2CC2)C(=O)C1 (centres undefined)
62 | 11.3 | CCCCOc1ccc(C(=O)OCCN(CC)CC)cc1
63 | 12.5 | COc1cccc(N(C)C(=S)Oc2cccc(C(C)(C)C)c2)n1
64 | 7.63 | CNCCC(Oc1ccccc1C)c1ccccc1 (centres undefined)
65 | 5.36 | CCCCNC(=O)NS(=O)(=O)c1ccc(N)cc1
66 | 7.83 | CCCc1nn(C)c2c(=O)[nH]c(-c3cc(S(=O)(=O)N4CCN(CCO)CC4)ccc3OCC)nc12
67 | 4.76 | CN(C)CC(c1ccc(O)cc1)C1(O)CCCCC1 (centres undefined)
68 | 1.38 | C=CC(N)CCC(=O)O (centres undefined)

Row | LC retention time [min] | Structure (SMILES)
69 | 7.84 | CCCc1nn(C)c2c(=O)[nH]c(-c3cc(S(=O)(=O)N4CCN(CC)CC4)ccc3OCC)nc12
70 | 3.16 | CC(C)Nc1nc(N)[nH]c(=O)n1
71 | 10.5 | CCCc1nn(C)c2c(=S)nc(-c3cc(S(=O)(=O)N4CCN(CCO)CC4)ccc3OCC)[nH]c12
72 | 7.52 | COCCCOc1ccnc(CS(=O)c2nc3ccccc3[nH]2)c1C (centres undefined)
73 | 4.18 | COc1cnc(NS(=O)(=O)c2ccc(N)cc2)nc1
74 | 5.13 | CC(C)N(C(=O)C(=O)O)c1ccccc1
75 | 4.27 | Cc1ncc([N+](=O)[O-])n1C
76 | 9.61 | CCCCC1(COC(=O)CCC(=O)O)C(=O)N(c2ccccc2)N(c2ccccc2)C1=O
77 | 9.36 | CCCOC(C(=O)OC1CCN(C)CC1)(c1ccccc1)c1ccccc1
78 | 5.29 | CCC1(c2ccccc2)C(=O)NCNC1=O
79 | 3.48 | CC(=O)Nc1ccc(O)cc1
80 | 4.21 | Cc1nnc(NS(=O)(=O)c2ccc(N)cc2)s1
81 | 4.69 | Cc1c(N)c(=O)n(-c2ccccc2)n1C
82 | 3.53 | CN1CCN(C)C1=O
83 | 12.9 | CC(C)c1cc(Oc2ccccc2)cc(C(C)C)c1NC(=S)NC(C)(C)C
84 | 2.61 | S=c1nc[nH]c2nc[nH]c12
85 | 9.99 | CCN(CC)CCOC(=O)C1(C2CCCCC2)CCCCC1
86 | 9.85 | CCOC(=O)C=C1SC(N2CCCCC2)C(=O)N1CC (centres undefined)
87 | 5.66 | Cc1ccccc1N1CCN(CCc2nnc3n2CCCC3)CC1
88 | 6.99 | CC(Cc1ccc(C(C)C(=O)O)cc1)C(=O)O (centres undefined)
89 | 7.08 | O=C1NC(=O)C(c2ccccc2)(c2ccccc2)N1

Row | LC retention time [min] | Structure (SMILES)
90 | 6.74 | CN1CCCCC1CCN1c2ccccc2Sc2ccc(S(C)=O)cc21 (centres undefined)
91 | 10.6 | CCCc1nn(C)c2c(=S)nc(-c3cc(S(=O)(=O)N4CCN(CC)CC4)ccc3OCC)[nH]c12
92 | 7.88 | CCCc1nn(C)c2c(=O)[nH]c(-c3cc(S(=O)(=O)N4CCN(C)CC4)ccc3OCC)nc12
93 | 7.99 | O=C1NCC(=O)N2C1Cc1c([nH]c3ccccc13)C2c1ccc2c(c1)OCO2 (centres undefined)
94 | 13.7 | CC12CCC(=O)C=C1CCC1C2CCC2(C)C(C(=O)CO)CCC12 (centres undefined)
95 | 7.95 | O=C(OC1CN2CCC1CC2)N1CCc2ccccc2C1c1ccccc1 (centres undefined)
96 | 7.95 | CN(C)CCC=C1c2ccccc2C=Cc2ccccc21
97 | 4.66 | CC(C)(C)NCC(O)COc1ccccc1C#N (centres undefined)
98 | 10.4 | CCCCCC(=O)c1ccc(O)cc1O
99 | 7.9 | CCc1cc2c(cc1CC)CC(NCC(O)c1ccc(O)c3[nH]c(=O)ccc13)C2 (centres undefined)
100 | 5.23 | CC(=O)CCCCn1c(=O)c2c(ncn2C)n(C)c1=O
101 | 6.27 | CCOc1ccc(NC(=O)CC(C)O)cc1 (centres undefined)
102 | 4.56 | Cc1c(NC(=O)c2cccnc2)c(=O)n(-c2ccccc2)n1C
103 | 7.62 | COc1cc(OC)nc(NC(=O)NS(=O)(=O)c2c(-c3nnn(C)n3)cnn2C)n1
104 | 4.19 | O=C1OCCN1N=Cc1ccc([N+](=O)[O-])o1
105 | 3.09 | CC(C)NCC(O)COc1ccc(CC(N)=O)cc1 (centres undefined)
106 | 5.44 | COC(=O)c1ccccc1C(=O)c1ccc(OCCN2CCCCC2)cc1
107 | 7.01 | CN(C)CCC=C1c2ccccc2COc2ccccc21
108 | 13.4 | COC1CC(OC2C(C)OC(OC3C(C)=CCC4CC(CC5(C=CC(C)C(C(C)C)O5)O4)OC(=O)C4C=C(C)C(O)C5OCC(=CC=CC3C)C45O)CC2OC)OC(C)C1O (centres undefined)
109 | 3.99 | CC(C)(C)Nc1nc(N)[nH]c(=O)n1

— the RepoRT retention time repository (doi:10.1016/j.jhazmat.2019.121712)
